# Laboratory results from patent US4386198A, “2-Hydroxyaclacinomycin A and 2-hydroxyaklavinone and process for preparing same” (priority 1979, dated 1983).
# Assays:
# [1] = test system: L 1210 cells; test: growth and nucleic acid biosynthesis of murine leukemia L 1210 cells in culture; assay type: cell-based
# Method: (§1) In an example, L 1210 cells were inoculated in RPMI (Rosewell Park Memorial Institute) 1640 medium containing 20% calf serum at the cell density of 5×10^4 cells/ml, and the compound in the present invention was simultaneously added to the medium at the concentration of 0.1 and 0.5 μg/ml and incubated at 37° C. in a CO2 incubator. 50% growth inhibition concentration of the compound over controls was determined. L 1210 cells as described above were also inoculated at 5×10^5 cells in RPMI 1640 medium containing 10% calf serum and incubated at 37° C. for 1 to 2 hours in a CO2 incubator. The cells were cultured for 15 min. at 37° C. after the compound of the present invention was added at various concentrations, and then ^14 C-uridine (0.05 μCi/ml) or ^14 C-thymidine (0.05 μCi/ml) was added and incubated for 60 additional min. at 37° C. After stopping the pulse-labeling by addition of 10% trichloroacetic acid (TCA) solution to the reaction mixture, acid-insoluble materials were precipitated, washed three times with 5 to 10% TCA, and dissolved in a small amount of formic acid. Then, radioactivity was determined, and inhibitory effects on the RNA and DNA biosynthesis were indicated by the 50% inhibition concentration (IC50) of the incorporation of radioactivity over controls.
# [2] = test system: L 1210 leukemia; test: in vivo antitumor activity: L 1210 (prolongation of lifespan of CDF1 mice inoculated intraperitoneally with L 1210 cells); design: species or system mice (murine; CDF1); details: for T/C: once daily for 10 days, from 24 h after inoculation
# Method: Antitumor effect against experimental animal tumor was examined as follows. CDF1 mice were inoculated with 1×10^5 cells of L 1210 cells intraperitoneally, and 2-hydroxyaclacinomycin A was administered intraperitoneally once daily for 10 days consecutively, 24 hours after inoculation. Prolongation of lifespan over controls (injected with only physiological saline instead of 2-hydroxyaclacinomycin A) is shown in Table 1. LD50 value in dd mice is also shown in Table 1 comparing with that of aclacinomycin A.
# [3] = test system: dd mice; test: Acute toxicity (LD50) in dd mice; assay type: in vivo; details: compared with daunomycin and adriamycin
# [4] = Acute toxicity (LD50) in dd mice; assay type: in vivo; details: mouse, in vivo, ip; dd mice
# [5] = cardiotoxicity compared with aclacinomycin A; details: comparing with aclacinomycin A
# [6] = test system: L 1210 cells; test: in vitro activity: L 1210 growth inhibition; assay type: cell-based, murine; details: for IC50: Mus musculus, L1210, L 1210, RPMI 1640 with 20% calf serum, 37° C.
# Method: as §1
# [7] = test system: RNA biosynthesis in L 1210 cells; test: in vitro activity: RNA synthesis in L 1210 cells (14C-uridine incorporation); assay type: cell-based, murine; details: for IC50: Mus musculus, L1210, L 1210, 14C-uridine, 60 min pulse after 15 min with compound, 37° C.
# Method: as §1
# [8] = test system: DNA biosynthesis in L 1210 cells; test: in vitro activity: DNA synthesis in L 1210 cells (14C-thymidine incorporation); assay type: cell-based, murine; details: Mus musculus, L1210; L 1210, 14C-thymidine, 60 min pulse after 15 min with compound, 37° C.
# Method: as §1
Structure (SMILES),"inhibition of growth and nucleic acid biosynthesis, in words [1]",T/C ([2]; 0.5 mg/kg/day i.p.) [%],T/C ([2]; 1 mg/kg/day i.p.) [%],T/C ([2]; 2 mg/kg/day i.p.) [%],T/C ([2]; 4 mg/kg/day i.p.) [%],T/C ([2]; 6 mg/kg/day i.p.) [%],T/C ([2]; 8 mg/kg/day i.p.) [%],T/C ([2]; 12 mg/kg/day i.p.) [%],"prolongation of lifespan, in words ([2]; L 1210-bearing mice)","antitumor activity, in words ([2]; comparing with aclacinomycin A)",effective dose range relative to aclacinomycin A ([2]; relative to aclacinomycin A),"acute toxicity, in words [3]",LD50 [4] [mg/kg],"cardiotoxicity, in words [5]",IC50 [6] [µg/mL],"suppression of growth, in words ([6]; murine leukemic cells, low concentration)",IC50 [7] [µg/mL],"inhibition of RNA synthesis, in words ([7]; mode of action compared to aclacinomycin and rhodomycin-group)",IC50 [8] [µg/mL],"toxicity in words at 8 mg/kg/day (in T/C column) ([2]; 8 mg/kg/day i.p., L 1210-bearing CDF1 mice)"
"CCC1(O)CC(OC2CC(N(C)C)C(OC3CC(O)C(OC4CCC(=O)C(C)O4)C(C)O3)C(C)O2)c2c(cc3c(c2O)C(=O)c2c(O)cc(O)cc2C3=O)C1C(=O)OC (centres unmarked) [2-Hydroxyaclacinomycin A, 2-hydroxyaclacinomycin A]",inhibited markedly the growth and nucleic acid biosynthesis,145,153,176,201,218,194,127,marked prolongation of lifespan,more potent antitumor activity,twice,much more less than those of known anthracycline antibiotics such as daunomycin and adriamycin,50,less cardiotoxicity,0.1,suppressed the growth of murine leukemic cells at low concentration,0.1,specifically inhibited RNA synthesis,0.95,
CC[C@@]1(O)C[C@H](O[C@H]2C[C@H](N(C)C)[C@H](O[C@H]3C[C@H](O)[C@H](O[C@H]4CCC(=O)[C@H](C)O4)[C@H](C)O3)[C@H](C)O2)c2c(cc3c(c2O)C(=O)c2c(O)cccc2C3=O)[C@H]1C(=O)OC [Aclacinomycin A],,130,146,165,205,105,,,,,,,22.6,,0.12,,0.1,,1.1,Toxic
